Tested on: p-IκBα and COX-2
Experiment: LPS-induced acute inflammation, western blot of p-IκBα and COX-2 in lung and liver
Type: in vivo, mouse
Conditions: acute treatment, LPS 10 mg/kg
Experimental: Fig 6 Newly identified NBD mimetics suppress LPS-induced acute inflammation in vivo. (A) The bioavailability property of SR12460, SR12343, SR12454, and SR11481. Concentrations of NBD mimetics were determined in plasma, brain, muscle, spleen, and liver 2 h post a single i.p. injection of 10 mg/kg of drugs; n = 3 per group. (B) Shown is the model to induce LPS-mediated acute inflammation and the treatment regimen with NBD mimetics. Mouse image via http://www.clker.com/clipart-mice-blank.html (copyright-free). (C) NBD mimetics suppressed LPS-induced acute inflammation in liver and lung by down-regulating NF-κB target gene expression. Vehicle, SR12343, SR12460, and 8K-NBD peptide were dosed at 10 mg/kg 30 min prior to the LPS treatment. Acute inflammation was induced by i.p. injection of 10 mg/kg LPS. Lung and liver were collected 2–4 h post injection, and mRNA was extracted for qRT-PCR analysis. (D, E) Western blot analysis was performed to probe for the expression of p-IκBα and COX-2 at protein level in liver and lung tissues. (F) Serum levels of IL-6 were determine by ELISA. n = 3–8 each group. *P < 0.05, **P < 0.01. […] COX-2, cyclooxygenase 2; IL-6, interleukin 6; i.p., intraperitoneal; LPS, lipopolysaccharide; NBD, NEMO-binding domain; n.d., nondetectable; NEMO, NF-κB essential modulator; NF-κB, nuclear factor κB; qRT-PCR, quantitative real-time polymerase chain reaction. […]

## O=C(CNc1ccc(Cl)cn1)NCCc1cccc(Br)c1 [SR12343]
  Phosphorylation of IκBα and levels of COX-2 in lung and liver (western blot): reduced
